Data from patent US7872005B2, “2-substituted heteroaryl compounds” (Synta Pharmaceuticals Corporation, priority 2004, dated 2011).

system: IL-12 production in human PBMC or THP-1 cells; assay: In vitro inhibition of IL-12 production in stimulated human PBMC or THP-1 cells (ELISA); format: cell-based; conditions: representative in vitro IC50 data
Excerpt: The biological activities of a heterocyclic compound can be evaluated by a number of cell-based assays. One of such assays can be conducted using cells from human peripheral blood mononuclear cells (PBMC) or human monocytic cell line (THP-1). The cells are stimulated with a combination of human interferon-γ (IFNγ) and lipopolysaccharide or a combination of IFNγ and Staphylococcus aureus Cowan I in the presence of a test compound. The level of inhibition of IL-12 production can be measured by determining the amount of p70 by using a sandwich ELISA assay with anti-human IL-12 antibodies. IC50 of the test compound can then be determined. Specifically, PBMC or THP-1 cells are incubated with the test compound. Cell viability was assessed using the bioreduction of MTS [3-(4,5-dimethylthiazol-2-yl)-5-(3-carboxymethoxyphenyl)-2-(4-sulfophenyl)-2H-tetrazolium] (Promega, Madison, Wis.).
Reagents. Staphylococcus aureus Cowan I (SAC) was obtained from Calbiochem (La Jolla, Calif.), and lipopolysaccharide (LPS, Serratia marscencens) was obtained from Sigma (St. Louis, Mo.). Human and mouse recombinant IFNγ were purchased from Boehringer Mannheim (Mannheim, Germany) and Pharmingen (San Diego, Calif.), respectively.
Human In Vitro Assay. Human PBMC were isolated by centrifugation using Ficoll-Paque (Pharmacia Biotech, Uppsala, Sweden) and prepared in RPMI medium supplemented with 10% fetal calf serum (FCS), 100 U/mL penicillin, and 100 μg/mL streptomycin. PBMC were plated in wells of a 96-well plate at a concentration of 5×10^5 cells/well, and primed by adding IFNγ (30 U/mL) for 22 h and stimulated by adding LPS (1 μg/mL), or by adding IFNγ (100 U/mL) and then stimulated by adding SAC (0.01%). A test pyrimidine compound was dissolved in DMSO, and added to wells of the 96-well plate. The final DMSO concentration was adjusted to 0.25% in all cultures, including the compound-free control. Human THP-1 cells were plated in wells, primed by adding IFNγ (100 U/mL) for 22 h and stimulated by adding SAC (0.025%) in the presence of different concentrations of the pyrimidine compound. Cell-free supernatants were taken 18 h later for measurement of cytokines. Cell viability was assessed using the bioreduction of MTS. Cell survival was estimated by determining the ratio of the absorbance in compound-treated groups versus compound-free control.
The supernatant was assayed for the amount of IL-12p40, IL-12p70, or IL-10 by using a sandwich ELISA with anti-human antibodies, i.e., a Human IL-12 p40 ELISA kit from R&D Systems (Berkeley, Calif.), and a Human IL-12 p70 or IL-10 ELISA kit from Endogen (Cambridge, Mass.). Assays were based on the manufacturer's instructions.
The biological activities of pyrimidine compounds were tested on human PBMC or THP-1 cells. Unexpectedly, some of the test compounds have IC50 values as low as <1 nM.

Compound | IC50 [µM]
Cc1cccc(/C=N/Nc2cc(N3CCOCC3)nc(OCC(C)(C)OC(=O)Nc3cccc(C(F)(F)F)c3)n2)c1 [Compound 28, (3-Trifluoromethyl-phenyl)-carbamic acid 1,1-dimethyl-2-{4-[N′-(3-methyl-benzylidene)-hydrazino]-6-morpholin-4-yl-pyrimidin-2-yloxy}-ethyl ester] | < 0.025
Cc1cccc(/C=N/Nc2cc(N3CCOCC3)nc(CC(C)(C)OC(=O)Nc3cccc(C(F)(F)F)c3)n2)c1 [Compound 29, (3-Trifluoromethyl-phenyl)-carbamic acid 1,1-dimethyl-2-{4-[N′-(3-methyl-benzylidene)-hydrazino]-6-morpholin-4-yl-pyrimidin-2-yl}-ethyl ester] | > 0.05
Cc1cccc(/C=N/Nc2cc(N3CCOCC3)nc(CC(C)(C)OC(=O)Nc3ccc(C(F)(F)F)cc3)n2)c1 [Compound 30, (4-Trifluoromethyl-phenyl)-carbamic acid 1,1-dimethyl-2-{4-[N′-(3-methyl-benzylidene)-hydrazino]-6-morpholin-4-yl-pyrimidin-2-yl}-ethyl ester] | < 0.025
Cc1cccc(/C=N/Nc2cc(N3CCOCC3)nc(CCNS(=O)(=O)N(C)C)n2)c1 [Compound 54, 1,1-Dimethyl-3-(2-{4-[N′-(3-methyl-benzylidene)-hydrazino]-6-morpholin-4-yl-pyrimidin-2-yl}-ethyl)-sulfamide] | < 0.025
Cc1cccc(/C=N/Nc2cc(N3CCOCC3)nc(OCCOC(=O)Nc3cccnc3)n2)c1 [Compound 106, Pyridin-3-yl-carbamic acid 2-{4-[N′-(3-methyl-benzylidene)-hydrazino]-6-morpholin-4-yl-pyrimidin-2-yloxy}-ethyl ester] | < 0.025
